The structures appear in SMILES notation.

Assay [1] addresses T1, Parkin ligase (Homo sapiens, UniProt O60260).
T1 construct: Enzyme: Parkin-His tagged 203 μM (10.5 mg/ml)
T1 sequence (O60260 1-465): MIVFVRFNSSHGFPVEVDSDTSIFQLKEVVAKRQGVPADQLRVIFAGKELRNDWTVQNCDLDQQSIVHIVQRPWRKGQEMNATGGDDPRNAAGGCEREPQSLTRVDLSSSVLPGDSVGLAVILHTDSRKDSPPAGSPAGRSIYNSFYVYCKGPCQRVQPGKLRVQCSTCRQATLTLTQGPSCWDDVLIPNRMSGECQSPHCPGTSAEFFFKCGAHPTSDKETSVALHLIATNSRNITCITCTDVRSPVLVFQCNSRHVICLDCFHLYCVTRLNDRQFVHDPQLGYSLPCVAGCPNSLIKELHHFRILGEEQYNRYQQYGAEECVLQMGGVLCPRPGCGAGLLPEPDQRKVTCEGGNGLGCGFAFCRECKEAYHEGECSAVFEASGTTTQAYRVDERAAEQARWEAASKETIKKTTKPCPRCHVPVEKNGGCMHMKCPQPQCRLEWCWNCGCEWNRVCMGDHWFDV
Put plainly: Activity-based probe assay using a ubiquitin vinyl sulfone probe (TR-FRET). The assay is classed as biochemical. Conditions: heat activated Parkin, HA-Ub-VS probe, TR-FRET signal; FIG. 1, FIG. 2. On the procedure:
A Ubiquitin vinyl sulfone probe can be used that irreversibly binds to the active site cysteine of Parkin ligase. Covalent attachment of the probe to the Parkin can be monitored by TR-FRET. Candidate activator compounds can be identified by increasing the activity of Parkin ligase due to an increase in TR-FRET signal. Screening for activating compounds can be distinguished from the controls as follows: • 100% activation signal=Heat activated Parkin+100 nM control activator in DMSO. 0% activation signal=Heat activated Parkin+DMSO only. Parkin activators can be identified by an increase of the 0% activation signal TR-FRET signal. […]
(§1) Data Analysis: The Data can be read in CSV files. […]
(In general: In TR-FRET formats the signal depends on donor and acceptor labels being close together.)

Assay [2] concerns the target T2, Parkin ligase (Homo sapiens, UniProt O60260).
T2 construct: Enzyme 3: Parkin-His tagged 203 μM (10.5 mg/ml) Supplied by An2H
Put plainly: Parkin pUB auto-ubiquitinylation assay (TR-FRET). The assay is classed as biochemical. To be noted: for Parkin activity in an auto-ubiquitination assay: pUb activated Parkin, E1-E2 cascade, TR-FRET signal, FIG. 3, FIG. 5.
Description: A Parkin pUB Auto-ubiquitinylation Assay is used to evaluate a candidate compound's potency to activate Parkin's ability to Auto-ubiquitinylate itself.
The principle of this assay is that the E3 Ligase Parkin catalyzes the transfer of Ubiquitin to target proteins, but also has the ability to auto-ubiquitinylate itself. The phospho-Ubiquition (pUb) added to the assay alters the Parkin to a state where small molecule activators can enable the Parkin to auto-ubiquitinylate though the E1-E2 cascade reaction. The use of a Eu cryptate Ubiquition and anti 6His-d2 that binds to the His tagged Parkin will give a signal when the Eu cryptate Ubiquition is auto-ubiquitinylate onto the Parkin which can be monitored by TR-FRET.
Similar to the Activity-based probe assay in Examples 2 and 3, screening for activating compounds can be distinguished from the controls as follows: • 100% activation signal=pUb activated Parkin+40 nM control activator in DMSO. • 0% activation signal=pUb activated Parkin+DMSO only. • Parkin activators can be identified by an increase of the 0% activation signal TR-FRET signal. […]
Assay Procedure: • 1) Load assay plate wells with 4.9 μl 400.0 nM Parkin, 800 nM pUb in reaction buffer by use of Bravo. • 2) Deliver 0.1 μl 100× activator candidates in DMSO by use of HP D-300 compound dispenser. […] Add each compound and control in duplicate wells. • 3) Spin 1000 rpm, 2 minutes, at room temp. • 4) Incubate plate for 15 minutes at room temp. • 5) Add 5 μl 10 nM E1, 100 nM E2, 17.6 nM Ubiquitin Eu and 2 mM ATP in Reaction Buffer by use of Bravo. • 6) Spin 1000 rpm, 2 minutes, at room temp. • 7) Incubate plate for 120 minutes at room temp. • 8) Add 10 μl 13.4 nM anti his d2 in detection buffer by use of Bravo. • 9) Spin 1000 rpm, 2 minutes, at room temp. • 10) Incubate plate for 60 minutes at room temp. • 11) Read plates on Perkin Elmer Envision instrument.
as §1

Assay [3] concerns the target T1, Parkin ligase. Kind of assay: Tandem mass spectrometry of Parkin ligase incubated with compound, after proteolytic digestion. The assay is classed as binding. Conditions: tandem mass spectrometry of proteolytic fragments. On the procedure: Parkin ligase was incubated with AH007 compound, and the mixture was then subject to tandem mass spectometry analysis after proteolytic digestion to produce fragments of Parkin ligase. […] Compound An2H07 is also fragmented when analyzed by mass spectrometry. Therefore, characteristic pieces of the compound AH007 that are attached to specific residues of Parkin can also be identified. These fragments were characterized for alterations in fragment size indicative of bound small molecule of the predicted molecular weight of AH007. The mass spectrometry data identified three specific fragments of AH007 at two specific residues of Parkin ligase. The data identified a fragment of 253.08-256.09 of AH007 compound attached to cysteine residue 377 of Parkin ligase (C377) and a fragment of 343.14-346.14 of AH007 compound attached to C377. The data also identified a fragment of 253.08-256.09 of AH007 compound attached to cysteine residue 59 of Parkin ligase (C59). […] It is also believed that at least C377 is included in ZnF domains of human Parkin Ligase, and thus accords with the theory that cysteine residues in the flexible Parkin ligase ZnF domains are vulnerable for attachment and/or interruption by small molecule candidates. Peptide fragments of Parkin comprising C59 and/or C377 will be useful to design further binding assays and selection of additional modulating agents.

As for `O=C(Nc1nc(NC(=O)c2ccccc2)n(-c2ccccc2)n1)c1ccccc1` [AH001, N,N′-(1-phenyl-1H-1,2,4-triazole-3,5-diyl)dibenzamide], the “Parkin Ligase reaction with the Activity-based Ubiquitin vinyl sulfone probe” value on Parkin ligase [1] is “increases the Parkin Ligase reaction”. At Parkin ligase [2] (compound together with pUB, FIGS. 4A and 4B), the “parkin activation in an auto-ubiquitination assay, compound with pUB” value is “synergistically increases parkin activation”. The “Parkin activity in an auto-ubiquitination assay” value on Parkin ligase [2] is “increases Parkin activity”.
For the compound `Cc1nc2c(-c3ccccc3)c(C)nn2c(S)c1Cc1ccccc1` [AH007, 6-benzyl-2,5-dimethyl-3-phenylpyrazolo[1,5-a]pyrimidine-7-thiol], the “binding residues of Parkin ligase for the compound” value at Parkin ligase [3] is “binds and/or attaches to two specific sites in Parkin ligase: C59 and C377”. In addition, the “Parkin Ligase reaction with the Activity-based Ubiquitin vinyl sulfone probe” value on Parkin ligase [1] is “increases the Parkin Ligase reaction”. The “Parkin activity in an auto-ubiquitination assay” value at Parkin ligase [2] is “increases Parkin activity”.

The values above are taken from patent US10155936B2, “Parkin ligase activation methods and compositions” (An2H Discovery Limited, priority 2014, dated 2018).
